Patent US20200123127A1, “REMOVAL OF SENESCENCE-ASSOCIATED MACROPHAGES” (EVERON BIOSCIENCES, INC., priority 2016, published 2020)
Entries after “also recorded” stand apart in the source; their conditions may differ.

Legend:
[1] = tested on: p16(Ink4a) expression in SAMs; test: p16(Ink4a) promoter-dependent luciferase activity in alginate bead-elicited macrophages (SAMs) ex vivo; format: cell-based, mouse; conditions: for Modulation of p16(Ink4a): SAMs: SAMs from NDF alginate beads, dose-response testing; for effect on luciferase activity (M1-inducing agents): IFN-γ 10 ng/mL, Poly(I:C) 10 μg/mL, IFN-α 100 U/mL, 72 hours
Method: (§1) FIG. 7. Immunomodulatory regulation of p16(Ink4a) and SAβG in macrophages. Peritoneal lavage cells elicited by alginate-encapsulated SCs from p16^Ink4a/Luc mice were treated ex vivo with immunomodulatory agents for 72 hours. A) p16 promoter-dependent luciferase activity (black bars) and […] activity (via 4-MUG hydrolysis) (gray bars) were measured following treatment with M1- and M2-polarizing stimuli: LPS at 1 ng/mL, IFN-γ at 10 ng/mL, LPS/IFN-γ co-treatment, Poly(I:C) at 10 μg/mL, IFN-α at 100 U/mL, IL-4 at 20 ng/mL, IL-13 at 10 ng/ml, and IL-4/IL-13 co-treatment. Results are shown as the mean±standard deviation for at least 3 independent experiments, with statistical significance between treated compared to non-treated samples depicted. B) Dose-dependent response of JAK1/2 inhibitor Ruxolitinib on luciferase activity in elicited macrophages in the presence (gray bars) or absence (black bars) of IL-4 (10 ng/mL) stimulation. Enzyme activities are expressed as the percent activity relative to non-treated (NT) controls per cell. Statistical significance between IL-4 stimulated and non-stimulated cells at each concentration of ruxolitinib is shown.
FIG. 8. Immunomodulatory regulation of p16(Ink4a) and SAβG in macrophages. Peritoneal lavage cells elicited by alginate-encapsulated SCs from p16^Ink4a/Luc mice were treated ex vivo with immunomodulatory agents for up to 72 hours. (A) mRNA expression of p16(Ink4a) and β-galactosidase (Glb1) in macrophages (relative to B2m expression) with or without LPS stimulation for 72 hours analyzed via qRT-PCR, normalized to non-treated controls. (B) Microphotograph of SAβG-stained adherence-selected macrophages with or without stimulation with LPS (1 ng/mL) for 72 hours (10× objective). (C&D) Kinetics of p16(Ink4a) promoter-dependent luciferase activity per cell with or without LPS stimulation (C) or IL-4 stimulation (D), normalized to activity from non-treated cells at time zero. Results are shown as the mean±standard deviation for at least 3 experiments. Statistical significance with respect to non-treated control at time zero is indicated. (E) Luciferase activity and (3-galactosidase activity (via 4-MUG hydrolysis) from proteose peptone-elicited lavage cells following stimulation with IL-4 (20 ng/mL) for 72 hours, normalized to non-treated controls. (F) Viability following 72 hour dose-response to JAK1/2 inhibitor Ruxolitinib in the presence or absence of IL-4 (10 ng/mL) stimulation, measured by CyQuant Direct DNA-based viability assay. Viability normalized to respective controls lacking Ruxolitinib. (G&H) Dose-response of STAT6 inhibitor AS1517499 against luciferase activity (G) and viability via CyQuant Direct assay (H) following 72 hour treatment in the presence and absence of IL-4 (10 ng/mL). Results normalized to respective controls (with or without IL-4) lacking STAT6 inhibitor. Statistical significance is calculated with respect to the difference between IL-4 stimulated and non-stimulated cells at each concentration of STAT6 inhibitor. (I) Relative luciferase activity per cell following repolarization with M1- and M2-inducing agents. Macrophages were left non-treated (NT) or treated with either LPS (1 ng/ml) or IL-4 (20 ng/ml) for 72 hours (days 1-3), as indicated. For each treatment set, samples were collected at 72 hours (no further treatment; days 4-6=x). Alternatively, cells were washed and placed in fresh medium (−), medium containing LPS (1 ng/mL) and IFN-γ (10 ng/mL), or medium containing IL-4 (20 ng/mL) and IL-13 (10 ng/mL) and incubated for an additional 72 hours prior to sample collection (as indicated for days 4-6). Luciferase activity is expressed as the percent activity per cell relative to non-treated (NT) controls after the first 72 hours.
Luciferase activity of cell lysates was accessed using Bright-Glo™ Luciferase Assay System (Promega; Madison, Wis.) according to manufacturer's instructions with minor modifications. […]

β-galactosidase in SAMs = test: β-galactosidase activity (4-MUG hydrolysis) in alginate bead-elicited macrophages (SAMs) ex vivo; format: cell-based, mouse; conditions: for effect on β-gal activity (polarizing agents): 72 hours, IFN-γ 10 ng/mL, Poly(I:C) 10 μg/mL, IFN-α 100 U/mL, IL-4 20 ng/mL, IL-13 10 ng/ml; for β-galactosidase production by SAM cells (MUG assay): concentrations of 2.5 to 10 μM
Method: as §1
FIG. 13. Effect of TA-4812 on β-gal expression and cell viability. Asenins TA-04812-1, was assayed for its effects on SAM viability, proliferation, and β-gal expression. SAM viability was determined using the resazurin cell viability assay (Res). Cell proliferation was assessed using the CyQuant assay (CyQUANT® Direct Cell proliferation Assay, ThermoFisher Scientific, Waltham, Mass., Catalog # C35011, performed according to manufacturer's instructions) (CyQ). β-gal production was assessed using the MUG assay, a quantitative assay to determine the level of β-gal expression using 4-methylumbelliferylgalactopyranoside (MUG) as substrate.
A fluorogenic substrate for β-galactosidase, 4-MUG (4-Methylumbelliferyl β-D-Galactopyranoside; Sigma-Aldrich), was used for the quantitation of enzymatic β-gal activity from cell lysates, assayed under β-gal^pH6 conditions (i.e. pH 6.0). In a 96-well white microplate, 5 μl of diluted cell lysate was combined with 45 μl of fluorogenic β-gal^pH6 reaction buffer: 1 mM 4-MUG in 100 mM citric acid/sodium phosphate buffer, pH 6.0, containing 2 mM MgCl2, 150 mM NaCl and 0.02% NP-40. Kinetics of product formation at room temperature was determined by measuring fluorescence (Ex/Em 360 nm/440 nm) of the reaction mixture at regular intervals over a 2-hour time period. Reaction endpoints were determined by addition of 150 μl of 700 mM sodium carbonate. The rate of reaction (RFU/min) for each sample was determined, and normalized per μg of protein.
To determine whether macrophage polarization regulates p16(Ink4a) and SAβG expression, peritoneal lavage from p16^Ink4a/Luc mice elicited by our alginate bead model were stimulated with M1- and M2-inducing agents and subsequently, luciferase activity (driven by endogenous p16(Ink4a) promoter) and β-galactosidase activity (assayed via 4-MUG hydrolysis) were measured (FIG. 7A). […] Consistently, LPS decreased the intensity of SAβG staining in treated macrophages. The response of macrophages to LPS was rapid, with a significant decrease in luciferase activity observed within 8 hours (˜40% decrease).
We investigated whether the mechanisms regulating the expression of these traits in macrophages were similar to those found in SCs. Using cells isolated from p16^Ink4a/Luc mice, the dose-dependent response of luciferase and β-galactosidase activities to immunomodulatory stimuli in macrophages was compared to that of proliferating and irradiation-induced senescent adipose-derived mesenchymal stromal cells. […] LPS stimulation of alginate bead model-elicited macrophages reduced luciferase activity, with maximal inhibition (˜85%) observed at concentrations ≥1 ng/mL (FIG. 10A). In addition, β-galactosidase activity was reduced by 40% at 10 ng/mL (FIG. 10B). […]

Row | Modulation of p16(Ink4a): SAMs [1] | effect on β-gal activity (polarizing agents) (β-galactosidase in SAMs) | effect on luciferase activity (M1-inducing agents) [1] | Molecule | further results
1 | increase | without modulating β-gal activity |  | IL-4: M2-polarizing cytokine | 
2 |  | without affecting β-gal activity | decreased luciferase activity | IFN-α | 
3 | decrease | without affecting β-gal activity | decreased luciferase activity | Poly(I:C) | luciferase activity, dose-response ([1]; 72 hr, selective to macrophages): dose-dependent decrease; β-galactosidase activity, dose-response (β-galactosidase in SAMs; Poly(I:C), 72 hr): no effect

More lines, now with the values behind:

Row | Molecule | Modulation of p16(Ink4a): SAMs [1] | effect on β-gal activity (polarizing agents) (β-galactosidase in SAMs) | effect on luciferase activity (M1-inducing agents) [1] | further results
4 | COc1ccc(C2CC(=NO)c3c(SCc4ccccc4)sc(C(=O)NCc4cccc(F)c4)c3C2)cc1 (stereo not shown) [Example A1.6, 3-(Benzylthio)-N-(3-fluorobenzyl)-4-(hydroxyimino)-6-(4-methoxyphenyl)-4,5,6,7-tetrahydrobenzo[c]thiophene-1-carboxamide] | decrease |  |  | β-galactosidase production by SAM cells (MUG assay) (β-galactosidase in SAMs; listed as TA-4812): reduce β-galactosidase production; β-galactosidase production by SAM cells (MUG assay) (β-galactosidase in SAMs; listed as TA-04812-1): reducing β-gal expression
5 | O=C(NCCCc1cn[nH]c1)c1ccc(-c2ccncc2)c(C#Cc2ccc(F)cc2)c1 [OT-82] | decrease |  |  | expression of p16 (luciferase) in SAMs ([1]; OT-82, 500 nM): selectively decrease; also recorded: significantly downregulates; β-galactosidase expression/activity in SAMs (β-galactosidase in SAMs; OT-82, 500 nM): no effect; also recorded: little effect
6 | IL-13: M2-polarizing cytokine | increase | without modulating β-gal activity |  | 
7 | IFN-γ: type II interferon, M1-inducing agent (protein, UniProt P01579 24-161, looked up) Interferon gamma: QDPYVKEAENLKKYFNAGHSDVADNGTLFLGILKNWKEESDRKIMQSQIVSFYFKLFKNFKDDQSIQKSVETIKEDMNVKFFNSNKKKRDDFEKLTNYSVTDLNVQRKAIHELIQVMAELSPAAKTGKRKRSQMLFRG |  | without affecting β-gal activity | decreased luciferase activity | 
